Experiments:
[1] = target: T1, Replicase polyprotein 1ab (Severe acute respiratory syndrome coronavirus 2, UniProt P0DTD1); assay: Inhibition of recombinant SARS-CoV-2 3CLp using fluorogenic substrate by microplate reader
[2] = Oral bioavailability in Sprague-Dawley rat at 10 mg/kg; type: ADME, organism-based; settings: in vivo
SARS-CoV-2 [3] = assay: Antiviral activity against SARS-CoV-2 infected in HAPEpIC cells at 0.01 MOI assessed as reduction in viral RNA copies by RT-qPCR analysis; type: functional, organism-based; settings: Severe acute respiratory syndrome coronavirus 2
SARS-CoV-2 [4] = assay: Antiviral activity against SARS-CoV-2 infected in African green monkey Vero E6 cells at 0.1 MOI assessed as inhibition of virus induced cytopathic effect by CCK8 assay; type: functional, organism-based; settings: Severe acute respiratory syndrome coronavirus 2, Vero C1008
[5] = Bioavailability in Sprague-Dawley rat at 20 mg/kg, ip; type: ADME, organism-based; settings: in vivo
[6] = Oral bioavailability in Sprague-Dawley rat at 20 mg/kg; type: ADME, organism-based; settings: in vivo
SARS-CoV-2 [7] = assay: Antiviral activity against SARS-CoV-2 infected in African green monkey Vero cells; type: functional, organism-based; settings: Severe acute respiratory syndrome coronavirus 2, Vero
[8] = target: von Hippel-Lindau disease tumor suppressor-SARS-Cov-2 polyprotein (Severe acute respiratory syndrome coronavirus 2, UniProt P0DTD1+P40337); assay: PROTAC activity at SARS-CoV-2 Main protease/VHL (unknown origin) in SARS-CoV-2 infected african green monkey Vero cell assessed as inhibition of virus-mediated cytopathic effect measured after 72 hrs; type: cell-based
SARS-CoV-2 [9] = assay: Antiviral activity against SARS-CoV-2; type: functional, organism-based; settings: Severe acute respiratory syndrome coronavirus 2
[10] = target: T1, Replicase polyprotein 1ab; assay: Inhibition of SARS-CoV-2 3CLp using fluorescent substrate by FRET assay
[11] = target: Protein cereblon/Replicase polyprotein 1ab (Severe acute respiratory syndrome coronavirus 2, UniProt P0DTD1+Q96SW2); assay: PROTAC activity at SARS-CoV-2 Main protease/CRBN (unknown origin) in SARS-CoV-2 infected african green monkey Vero cell assessed as inhibition of virus-mediated cytopathic effect measured after 72 hrs; type: cell-based
[12] = Cytotoxicity against African green monkey Vero E6 cells; type: toxicity, cell-based, Vero C1008; settings: chlorocebus sabaeus
[13] = target: T1, Replicase polyprotein 1ab; assay: Inhibition of 2019-nCoV-2 3CLp using fluorescent substrate by FRET assay
[14] = target: T1, Replicase polyprotein 1ab; assay: Inhibition of recombinant SARS-CoV2 6xHis-tag-Main protease containing modified HRV-3C expressed in Escherichia coli using Mca-AVLQSGFR-K(Dnp)K peptide substrate assessed as fluorescent intensity
SARS-CoV-2 [15] = assay: Antiviral activity against SARS-CoV-2 infected in African green monkey Vero E6 cells assessed as inhibition of virus induced cytopathic effect by CellTiter-Glo luminescent cell viability assay; type: functional, organism-based; settings: Severe acute respiratory syndrome coronavirus 2, Vero C1008
SARS-CoV-2 [16] = assay: Antiviral activity against SARS-CoV-2 Delta; type: functional; settings: Severe acute respiratory syndrome coronavirus 2, Delta

Sequence of Protein cereblon/Replicase polyprotein 1ab (Q96SW2 whole entry, other chains not shown): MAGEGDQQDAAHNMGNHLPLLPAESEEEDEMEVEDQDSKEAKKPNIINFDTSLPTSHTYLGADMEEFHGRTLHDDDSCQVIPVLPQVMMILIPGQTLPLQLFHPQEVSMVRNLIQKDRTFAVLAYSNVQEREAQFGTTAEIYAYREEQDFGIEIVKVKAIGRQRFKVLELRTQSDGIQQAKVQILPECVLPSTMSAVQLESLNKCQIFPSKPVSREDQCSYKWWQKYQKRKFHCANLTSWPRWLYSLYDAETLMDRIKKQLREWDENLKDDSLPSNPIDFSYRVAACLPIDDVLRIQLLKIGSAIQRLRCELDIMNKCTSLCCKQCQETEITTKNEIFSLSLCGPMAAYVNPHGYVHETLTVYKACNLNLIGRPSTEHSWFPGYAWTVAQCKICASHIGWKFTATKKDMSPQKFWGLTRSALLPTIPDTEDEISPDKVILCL
Sequence of von Hippel-Lindau disease tumor suppressor-SARS-Cov-2 polyprotein (P40337 whole entry, other chains not shown): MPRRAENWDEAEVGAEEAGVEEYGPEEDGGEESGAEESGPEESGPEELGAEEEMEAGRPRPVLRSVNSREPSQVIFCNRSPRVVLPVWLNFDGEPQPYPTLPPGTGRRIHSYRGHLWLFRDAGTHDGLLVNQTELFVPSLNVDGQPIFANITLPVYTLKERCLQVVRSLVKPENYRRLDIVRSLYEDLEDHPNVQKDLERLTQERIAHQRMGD

CC1(C)[C@@H]2[C@@H](C(=O)N[C@H](C=O)C[C@@H]3CCNC3=O)N(C(=O)COc3ccc(Cl)cc3)C[C@@H]21
IC50 [1]: 9 nM | bioavailability [2]: 4.8%

CC1(C)[C@@H]2[C@H]1CN(C(=O)COc1ccc(OC(F)(F)F)cc1)[C@H]2C(=O)N[C@@H](C=O)C[C@H]1CCNC1=O
EC50 (SARS-CoV-2 [3]): 1.2 nM | EC50 (SARS-CoV-2 [4]): 860 nM | bioavailability [5]: 78% | bioavailability [6]: 11.2%

C[C@H](NC(=O)[C@@H](c1cccnc1)N(C(=O)C(Cl)Cl)c1ccc(-c2ccccc2)cc1)c1ccccc1
EC50 (SARS-CoV-2 [7]): 900 nM

Cc1ncsc1-c1ccc(CNC(=O)[C@@H]2C[C@@H](O)CN2C(=O)[C@@H](NC(=O)CCOCCOCCOCCn2nnc(COc3ccc(OC(=O)N[C@@H](CC(C)C)C(=O)N[C@H](CO)C[C@@H]4CCNC4=O)cc3)c2C)C(C)(C)C)cc1
EC50 [8]: 750 nM

O=C1c2c(O)cc(OP(=O)(Oc3ccccc3)Oc3ccccc3)cc2O[C@H](c2cc(O)c(O)c(O)c2)[C@H]1O
EC50 (SARS-CoV-2 [9]): 9030 nM

CCOc1cc(O)c2c(=O)c(O)c(-c3cc(O)c(O)c(O)c3)oc2c1
EC50 (SARS-CoV-2 [9]): 51000 nM | IC50 [10]: 740 nM

C[C@H](NC(=O)[C@@H](c1cccnc1)N(C(=O)C(Br)(Br)Br)c1ccc(-c2ccccc2)cc1)c1ccccc1
EC50 (SARS-CoV-2 [7]): 580 nM

Cc1c(COC(=O)N[C@@H](CC(C)C)C(=O)N[C@@H](C[C@@H]2CCNC2=O)C(O)S(=O)(=O)O)nnn1CCOCCOCCOCCC(=O)Nc1cccc2c1C(=O)N(C1CCC(=O)NC1=O)C2=O (some centres undefined)
EC50 [11]: 2150 nM

Cc1ncsc1-c1ccc(CNC(=O)[C@@H]2C[C@@H](O)CN2C(=O)[C@@H](NC(=O)CCC(=O)NCCOCCn2nnc(COc3ccc(OC(=O)N[C@@H](CC(C)C)C(=O)N[C@H](C=O)C[C@@H]4CCNC4=O)cc3)c2C)C(C)(C)C)cc1
EC50 [8]: 120 nM

CC(C)(C)c1ccc(N(C(=O)c2ccco2)[C@@H](C(=O)NC2CC2)c2cccnc2)cc1
CC50 [12]: 52800 nM | IC50 [13]: 3860 nM

COc1cc(O)c2c(c1)O[C@H](c1cc(O)c(O)c(O)c1)[C@@H](O)C2=O
EC50 (SARS-CoV-2 [9]): 11500 nM

COC(=O)Cn1sc2ccccc2c1=O
IC50 [14]: 2830 nM

CC(C)C[C@H](NC(=O)Oc1ccc(OCc2cn(CCCCCOCC(=O)Nc3cccc4c3C(=O)N(C3CCC(=O)NC3=O)C4=O)nn2)cc1)C(=O)N[C@H](CO)C[C@@H]1CCNC1=O (some centres undefined)
EC50 [11]: 250 nM

O=c1c(O)c(-c2cc(O)c(O)c(O)c2)oc2cc(OCC3CCCC3)cc(O)c12
EC50 (SARS-CoV-2 [9]): 7560 nM | IC50 [10]: 2450 nM

CC1COP(=O)(Oc2cc(O)c3c(=O)c(O)c(-c4cc(O)c(O)c(O)c4)oc3c2)OC1 (centres undefined)
EC50 (SARS-CoV-2 [9]): 33400 nM | IC50 [10]: 6620 nM

CC(C)[C@H]1C(=O)N2C[C@]3(C[C@H]2C#N)C(=O)Nc2ccc(cc23)CCCCCN1C(=O)c1cc2c(F)cc(F)cc2[nH]1
EC50 (SARS-CoV-2 [15]): < 100 nM | IC50 [10]: < 100 nM

CC(C)[C@H]1C(=O)N2C[C@]3(C[C@H]2C#N)C(=O)Nc2ccc(cc23)CCCCCN1C(=O)c1cc2c(F)cc(F)c(F)c2[nH]1
EC50 (SARS-CoV-2 [15]): < 100 nM | IC50 [10]: < 100 nM

CC(C)(C)c1ccc(N(C(=O)c2ccco2)[C@@H](C(=O)NC2CCCC2)c2cccnc2)cc1
CC50 [12]: 101000 nM | IC50 [13]: 2510 nM

N#C[C@H](C[C@@H]1CCCNC1=O)NC(=O)[C@H](CC1CC1)NC(=O)c1cc2cccc(Cl)c2[nH]1 [POMOTRELVIR]
EC90 (SARS-CoV-2 [16]): 78 nM

C[C@H](NC(=O)[C@@H](c1cccnc1)N(C(=O)c1ccco1)c1ccc(-c2ccccc2)cc1)c1ccccc1
CC50 [12]: > 200000 nM | IC50 [13]: 660 nM

O=C[C@H](C[C@@H]1CCNC1=O)NC(=O)[C@@H]1[C@H]2CCC[C@H]2CN1C(=O)COc1ccc(Cl)cc1
IC50 [1]: 9 nM | bioavailability [2]: 7.2%

CC(C)[C@H]1C(=O)N2C[C@]3(C[C@H]2C#N)C(=O)Nc2ccc(cc23)CCCCCN1C(=O)c1cc2ccc(C(F)(F)F)cc2[nH]1
EC50 (SARS-CoV-2 [15]): < 100 nM | IC50 [10]: 100 nM

O=c1c2cccc(Br)c2sn1-c1ccccc1
IC50 [14]: > 100000 nM

CCC[C@H]1C(=O)N2C[C@]3(C[C@H]2C#N)C(=O)Nc2ccc(cc23)CCCCCN1C(=O)c1cc2c(F)cc(F)c(F)c2[nH]1
EC50 (SARS-CoV-2 [15]): < 100 nM | IC50 [10]: < 100 nM

— ChEMBL document CHEMBL5512603, “Development of de-novo coronavirus 3-chymotrypsin-like protease (3CLpro) inhibitors since COVID-19 outbreak: A strategy to tackle challenges of persistent virus infection” (Eur J Med Chem, 2024)
